Measured values taken from the supplement of paper PMC10627819.
≈ marks a conversion by molar mass, not a printed value.

Experiments:
S. aureus DSM 20231 [1] = assay: fitness (endpoint OD595 vs no drug) (fraction); higher = more growth
How it was run: (§1)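 With the first reading as background, OD595 was measured every 30 min for 14 h in 384-well plates kept at 37 °C and inoculated at OD595 0.01. TSB, LB Lennox or CY was the medium. Fitness is the optical density at the transition into stationary phase divided by the robust mean of no-drug control wells, with a cap of 1.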

S. pneumoniae D39V [2] = assay: as above
How it was run: as §1

S. aureus Newman [3] = assay: as above
How it was run: as §1

B. subtilis 168 [4] = assay: as above
How it was run: as §1

S. aureus DSM 20231 [5] = assay: Bliss interaction score (quartile over a dose matrix) (fitness difference); higher = more antagonism (negative = synergy)
How it was run: (§2)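 Each plate was normalised to the robust mean of its own no-drug wells, using OD595 at entry into stationary phase, with values capped at 1. This normalised growth is the fitness value. The Bliss score is the difference between observed and product-expected fitness, with single-drug fitness inferred from the combination data and quartiles taken over technical, biological and donor/recipient replicates.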

S. pneumoniae D39V [6] = assay: as above
How it was run: as §2

S. aureus Newman [7] = assay: as above
How it was run: as §2

B. subtilis 168 [8] = assay: as above
How it was run: as §2

S. aureus DSM 20231 [9] = tested on: S. aureus DSM 20231
S. pneumoniae D39V [10] = tested on: S. pneumoniae D39V
S. aureus Newman [11] = tested on: S. aureus Newman
B. subtilis 168 [12] = tested on: B. subtilis 168
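Throughout, for Bliss interaction score (quartile over a dose matrix): first quartile when negative (synergy) and third quartile when positive (antagonism).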

C[n+]1ccc(-c2cc[n+](C)cc2)cc1 [Paraquat] + COc1ccc(C[C@H](N)C(=O)N[C@H]2[C@@H](O)[C@H](n3cnc4c(N(C)C)ncnc43)O[C@@H]2CO)cc1 [Puromycin]
fitness
Conditions | first compound 1.25 µg/mL | first compound 1.5 µg/mL | first compound 2.5 µg/mL | first compound 3 µg/mL | first compound 5 µg/mL | first compound 6 µg/mL
B. subtilis 168 [4], partner 0.39 µg/mL | 0.957 | – | 0.913 | – | 0.792 | –
B. subtilis 168 [4], partner 0.78 µg/mL | 0.924 | – | 0.894 | – | 0.779 | –
B. subtilis 168 [4], partner 1.56 µg/mL | 0.883 | – | 0.858 | – | 0.747 | –
S. aureus DSM 20231 [1], partner 0.39 µg/mL | 0.978 | – | 0.98 | – | 0.977 | –
S. aureus DSM 20231 [1], partner 0.78 µg/mL | 0.97 | – | ≥ 1 | – | 0.983 | –
S. aureus DSM 20231 [1], partner 1.56 µg/mL | 0.964 | – | ≥ 1 | – | 0.989 | –
S. aureus Newman [3], partner 0.39 µg/mL | 0.937 | – | 0.965 | – | 0.979 | –
S. aureus Newman [3], partner 0.78 µg/mL | ≥ 1 | – | 0.99 | – | 0.981 | –
S. aureus Newman [3], partner 1.56 µg/mL | ≥ 1 | – | 0.971 | – | 0.994 | –
S. pneumoniae D39V [2], partner 1 µg/mL | – | 0.996 | – | ≥ 1 | – | ≥ 1
S. pneumoniae D39V [2], partner 2 µg/mL | – | 0.973 | – | 0.982 | – | 0.966
S. pneumoniae D39V [2], partner 4 µg/mL | – | 0.852 | – | 0.856 | – | 0.861

fitness, S. aureus DSM 20231 [1], one replicate
Conditions | first compound 1.25 µg/mL | first compound 2.5 µg/mL | first compound 5 µg/mL
partner 3.12 µg/mL | 0.926 | 0.976 | 0.965
partner 6.24 µg/mL | 0.732 | 0.703 | 0.689

Conditions | Bliss interaction score
B. subtilis 168 [8] | 0.0238
S. aureus DSM 20231 [5] | 0.0717
S. aureus Newman [7] | 0.0892
S. pneumoniae D39V [6] | 0.135

Cn1c2cccc(=O)c-2nc2ccccc21 [Pyocyanin] + Cc1cc(NS(=O)(=O)c2ccc(N)cc2)no1 [Sulfamethoxazol]
fitness
Conditions | partner 1 µg/mL | partner 2 µg/mL | partner 4 µg/mL
B. subtilis 168 [4], first compound 1.25 µg/mL | 0.869 | 0.862 | 0.877
B. subtilis 168 [4], first compound 2.5 µg/mL | 0.852 | 0.738 | 0.868
B. subtilis 168 [4], first compound 5 µg/mL | 0.669 | 0.685 | 0.774
S. aureus DSM 20231 [1], first compound 1.25 µg/mL | 0.929 | 0.939 | 0.925
S. aureus DSM 20231 [1], first compound 2.5 µg/mL | 0.831 | 0.903 | 0.893
S. aureus DSM 20231 [1], first compound 5 µg/mL | 0.641 | 0.674 | 0.689
S. pneumoniae D39V [2], first compound 0.325 µg/mL | 0.983 | ≥ 1 | 0.96
S. pneumoniae D39V [2], first compound 0.65 µg/mL | 0.936 | 0.975 | 0.933

one replicate
Conditions | fitness
B. subtilis 168 [4], first compound 1.25 µg/mL, partner 0.5 µg/mL | 0.915
B. subtilis 168 [4], first compound 2.5 µg/mL, partner 0.5 µg/mL | 0.884
B. subtilis 168 [4], first compound 5 µg/mL, partner 0.5 µg/mL | 0.632
S. aureus Newman [3], first compound 1.25 µg/mL, partner 8 µg/mL | 0.911
S. aureus Newman [3], first compound 2.5 µg/mL, partner 8 µg/mL | 0.858
S. aureus Newman [3], first compound 5 µg/mL, partner 8 µg/mL | 0.778
S. pneumoniae D39V [2], first compound 1.3 µg/mL, partner 1 µg/mL | 0.637
S. pneumoniae D39V [2], first compound 1.3 µg/mL, partner 2 µg/mL | 0.679
S. pneumoniae D39V [2], first compound 1.3 µg/mL, partner 4 µg/mL | 0.615

Conditions | Bliss interaction score
B. subtilis 168 [8] | -0.063
S. aureus DSM 20231 [5] | 0.0564
S. aureus Newman [7] | -0.0714
S. pneumoniae D39V [6] | -0.0551

C[n+]1ccc(-c2cc[n+](C)cc2)cc1 [Paraquat] + CN1C2=CC=CC=C2N=C3C1=CC=CC3=O [Pyocyanin]
fitness
Conditions | first compound 1.25 µg/mL | first compound 1.5 µg/mL | first compound 2.5 µg/mL | first compound 3 µg/mL | first compound 5 µg/mL | first compound 6 µg/mL
B. subtilis 168 [4], partner 1.25 µg/mL | 0.918 | – | 0.903 | – | 0.802 | –
B. subtilis 168 [4], partner 2.5 µg/mL | 0.866 | – | 0.838 | – | 0.673 | –
B. subtilis 168 [4], partner 5 µg/mL | 0.721 | – | 0.707 | – | 0.534 | –
S. aureus DSM 20231 [1], partner 1.25 µg/mL | 0.918 | – | 0.931 | – | 0.905 | –
S. aureus DSM 20231 [1], partner 2.5 µg/mL | 0.891 | – | 0.879 | – | 0.858 | –
S. aureus DSM 20231 [1], partner 5 µg/mL | 0.627 | – | 0.647 | – | 0.595 | –
S. aureus Newman [3], partner 1.25 µg/mL | 0.838 | – | 0.799 | – | 0.825 | –
S. aureus Newman [3], partner 2.5 µg/mL | 0.821 | – | 0.776 | – | 0.751 | –
S. aureus Newman [3], partner 5 µg/mL | 0.401 | – | 0.382 | – | 0.366 | –
S. pneumoniae D39V [2], partner 0.325 µg/mL | – | ≥ 1 | – | ≥ 1 | – | ≥ 1
S. pneumoniae D39V [2], partner 0.65 µg/mL | – | 0.954 | – | 0.97 | – | 0.955

S. pneumoniae D39V [2], partner 1.3 µg/mL, one replicate
Conditions | fitness
first compound 1.5 µg/mL | 0.528
first compound 3 µg/mL | 0.597
first compound 6 µg/mL | 0.601

Conditions | Bliss interaction score
B. subtilis 168 [8] | -0.0646
S. aureus DSM 20231 [5] | -0.0554
S. aureus Newman [7] | 0.0765
S. pneumoniae D39V [6] | -0.0783

Cc1cc(NS(=O)(=O)c2ccc(N)cc2)no1 [Sulfamethoxazol]
fitness
Conditions | B. subtilis 168 [4] | S. aureus DSM 20231 [1] | S. aureus Newman [3] | S. pneumoniae D39V [2]
1 µg/mL | 0.975 | 0.976 | 0.968 | 0.954
2 µg/mL | 0.948 | 0.946 | 0.984 | 0.984
4 µg/mL | 0.915 | 0.943 | 0.978 | 0.987

Conditions | MIC [µg/mL]
B. subtilis 168 [12] | > 16
S. aureus DSM 20231 [9] | > 16
S. aureus Newman [11] | > 16
S. pneumoniae D39V [10] | 16 (≈ 63.2 µM)

Cc1onc(-c2ccccc2)c1C(=O)N[C@@H]1C(=O)N2[C@@H]1SC(C)(C)[C@@H]2C(=O)O [Oxacillin] + CCN(CC)CCOC(=O)c1ccc(N)cc1 [Procaine]
fitness
Conditions | partner 85.5 µg/mL | partner 171 µg/mL | partner 342 µg/mL
B. subtilis 168 [4], first compound 0.002 µg/mL | 0.938 | 0.932 | 0.894
B. subtilis 168 [4], first compound 0.004 µg/mL | 0.966 | 0.913 | 0.911
B. subtilis 168 [4], first compound 0.008 µg/mL | 0.963 | 0.916 | 0.867
S. aureus DSM 20231 [1], first compound 0.0156 µg/mL | 0.782 | 0.916 | 0.852
S. aureus DSM 20231 [1], first compound 0.0312 µg/mL | 0.64 | 0.738 | 0.712
S. aureus DSM 20231 [1], first compound 0.0625 µg/mL | 0.443 | 0.513 | 0.514
S. aureus Newman [3], first compound 0.0312 µg/mL | 0.686 | – | –
S. pneumoniae D39V [2], first compound 0.01 µg/mL | ≥ 1 | ≥ 1 | 0.998
S. pneumoniae D39V [2], first compound 0.02 µg/mL | 0.933 | 0.932 | 0.925
S. pneumoniae D39V [2], first compound 0.04 µg/mL | – | – | 0.497

fitness, B. subtilis 168 [4], one replicate
Conditions | first compound 0.075 µg/mL | first compound 0.15 µg/mL | first compound 0.3 µg/mL
partner 85.5 µg/mL | 0.637 | 0.0445 | 0.056
partner 171 µg/mL | 0.535 | 0.0452 | 0.0565
partner 342 µg/mL | 0.577 | 0.041 | 0.0536

Conditions | Bliss interaction score
B. subtilis 168 [8] | 0.0581
S. aureus DSM 20231 [5] | -0.0703
S. aureus Newman [7] | -0.0416
S. pneumoniae D39V [6] | 0.0938

CC1=C(C(=O)O)N2C(=O)[C@@H](NC(=O)[C@H](N)c3ccccc3)[C@H]2SC1 [Cephalexin]
fitness
Conditions | 0.125 µg/mL | 0.25 µg/mL | 0.5 µg/mL | 1 µg/mL | 2 µg/mL | 4 µg/mL
B. subtilis 168 [4] | 0.925 | 0.917 | 0.937 | 0.939 | – | –
S. aureus Newman [3] | – | 0.987 | ≥ 1 | ≥ 1 | ≥ 1 | –
S. pneumoniae D39V [2] | – | – | – | 0.649 | 0.29 | 0.0479

Conditions | MIC [µg/mL]
S. aureus DSM 20231 [9] | 4 (≈ 11.5 µM)
S. aureus Newman [11] | 4 (≈ 11.5 µM)
S. pneumoniae D39V [10] | 4 (≈ 11.5 µM)

Oc1cc(Cl)ccc1Oc1ccc(Cl)cc1Cl [Triclosan]
Conditions | MIC [µg/mL]
S. aureus DSM 20231 [9] | 0.08 (≈ 0.276 µM)
S. pneumoniae D39V [10] | 16 (≈ 55.3 µM)
